Measured values: article PMC9411704, “Assessment of the Carcinogenic Potential of Pretomanid in Transgenic Tg.rasH2 Mice” (International Journal of Toxicology, 2022)
Read-outs that look alike come from different tables or passages of the source.

Key:
[1] = tested on: Salmonella typhimurium TA98, TA100, TA1535, TA1537 and Escherichia coli WP2uvrA; assay: Bacterial reverse mutation (Ames) assay, overall over five tester strains; format: cell-based; conditions: up to 5000 μg/plate
Method: (§1) Pretomanid and metabolite M50 were evaluated over a range of concentrations, with and without an added metabolic activation system, in five tester strains: Salmonella typhimurium histidine auxotrophs TA98, TA100, TA1535, and TA1537 [9] and the Escherichia coli tryptophan auxotroph WP2uvrA. S. typhimurium strains were received from Dr. Bruce Ames, Department of Biochemistry, University of California (Berkeley, CA). The E. coli strain was received from The National Collection of Industrial Bacteria, Torrey Research Station, Aberdeen, Scotland (United Kingdom). The metabolic activation system was a liver homogenate (S9) mix. The S9 component was prepared from male Sprague-Dawley rats that had been injected (intraperitoneally) with Aroclor^TM 1254 at 500 mg/kg, 5 days before sacrifice. The S9 mix was prepared immediately before use and contained 10% S9, 5 mM glucose-6-phosphate, 4 mM β-nicotinamide adenine dinucleotide phosphate, 8 mM MgCl2 and 33 mM KCl in a 100 mM phosphate buffer at pH 7.4. Pretomanid was tested at 0.05 to 5000 μg/plate. Metabolite M50 was tested at 78 to 2500 μg/plate. A negative (solvent) control culture and appropriate positive control cultures were included in each assay.
(§2) Bacteria were exposed to test materials by the plate incorporation method originally described by Ames et al and updated by Maron and Ames. Bottom agar was Vogel-Bonner minimal medium E [12] with 1.5% (w/v) agar, and the top Agar was 0.7% (w/v) agar and 0.5% (w/v) NaCl. After incubation, cultures were evaluated using a dissecting microscope for precipitation or cytotoxicity, and revertant colonies were counted. The mean numbers of revertant colonies in various cultures were compared to reach conclusions about assay validity and mutagenic potential. For the test article to be evaluated positive, it must cause a dose-related increase in the mean revertants per plate of at least one tester strain with a minimum of two increasing concentrations of test article.

[2] = tested on: Salmonella typhimurium TA1537; assay: Bacterial reverse mutation (Ames) assay, plate incorporation; format: cell-based
Method: as §1, §2

[3] = tested on: Salmonella typhimurium TA100; assay: as above; format: cell-based
Method: as §1, §2

[4] = tested on: Salmonella typhimurium TA98; assay: as above; format: cell-based
Method: as §1, §2

[5] = tested on: Salmonella typhimurium TA1535; assay: as above; format: cell-based
Method: as §1, §2

[6] = Toxicokinetic assessment in wild-type CByB6F1 mice (Day 14); format: in vivo
Method: TK animals were included for the vehicle control (n = 4 sex) and pretomanid-treated groups (n = 10 sex/group). The TK cohort animals were dosed by oral gavage once daily for 14 consecutive days.
Toxicokinetic blood samples (300 μL for males and 250 μL for females) were collected in K3EDTA tubes after 14 doses from the TK cohort via retro-orbital bleeding under 70% CO2/30% O2 anesthesia. On Day 14, control mice were bled once 2 hours after dosing. On Day 14 and 15, Pretomanid-treated mice were bled predose, 0.5, 1, 3, 6, and 24 hours post dose. TK animals were euthanized after their final blood collection.
Collected blood was stored on wet ice until the samples were processed to plasma. Blood samples were centrifuged at 4±2°C and 8000 g for 5 minutes. Plasma was snap frozen in liquid nitrogen and stored in a deep freezer (≤−60°C) within 60 minutes of bleeding the TK animals.
Pretomanid and the M50 metabolite were quantified in mouse plasma by liquid chromatography-tandem mass spectrometry (LC-MS/MS) after protein precipitation. Aliquots of 25 µL of plasma were spiked with internal standards (PA-824-d5 or morphine) and proteins were precipitated in 1% formic acid in acetonitrile. A partial supernatant from each sample was transferred to a clean plate and diluted in acetonitrile/water (40:60) for pretomanid and deionized water for M50. Supernatant was analyzed for pretomanid or M50 using validated LC-MS/MS methods with a linear range of 20 to 10,000 ng/mL for pretomanid and 10 to 5,000 ng/mL for M50 (methods validated at Alliance Pharma, Malvern PA).
Sample collection time and plasma concentration data were analyzed to derive TK parameters by standard model independent methods based on the mean plasma concentration-time data for each dose group. The TK analyses of the plasma concentration profiles were performed using non-compartmental analysis in Phoenix WinNonlin Professional 7.0 (Certara, L.P., St. Louis, MO, USA). Concentration values below the lower limit of quantitation were treated as zeros for analysis purposes.

Escherichia coli WP2uvrA = assay: Bacterial reverse mutation (Ames) assay, plate incorporation
Method: as §1, §2

O=[N+]([O-])c1cn2c(n1)OC[C@@H](OCc1ccc(OC(F)(F)F)cc1)C2 [Pretomanid, (6S)-2-nitro-6-{[4-(trifluoromethoxy)benzyl]oxy}-6,7-dihydro-5H-imidazo[2,1-b][1,3]oxazine]
Change in number of revertant colonies ([1]; any tester strain under any conditions): did not cause a significant increase
Cytotoxicity in the Ames assay [1]: no appreciable cytotoxicity
Mutagenic potential ([1]; with and without S9): negative
Mean Number of Revertants/Plate ([2]; TA1537 +S9, 100 μg/plate): 9 Revertants/Plate
Mean Number of Revertants/Plate ([2]; TA1537 +S9, 333 μg/plate): 6 Revertants/Plate
Mean Number of Revertants/Plate ([2]; TA1537 +S9, 1000 μg/plate): 5 Revertants/Plate
Mean Number of Revertants/Plate ([2]; TA1537 +S9, 3333 μg/plate): 5 Revertants/Plate
Mean Number of Revertants/Plate ([2]; TA1537 +S9, 5000 μg/plate): 4 Revertants/Plate
Mean Number of Revertants/Plate ([2]; TA1537 −S9, 100 μg/plate): 5 Revertants/Plate
Mean Number of Revertants/Plate ([2]; TA1537 −S9, 333 μg/plate): 5 Revertants/Plate
Mean Number of Revertants/Plate ([2]; TA1537 −S9, 1000 μg/plate): 10 Revertants/Plate
Mean Number of Revertants/Plate ([2]; TA1537 −S9, 3333 μg/plate): 5 Revertants/Plate
Mean Number of Revertants/Plate ([2]; TA1537 −S9, 5000 μg/plate): 5 Revertants/Plate
Mean Number of Revertants/Plate ([3]; TA100 +S9, 100 μg/plate): 137 Revertants/Plate
Mean Number of Revertants/Plate ([3]; TA100 +S9, 333 μg/plate): 179 Revertants/Plate
Mean Number of Revertants/Plate ([3]; TA100 +S9, 1000 μg/plate): 173 Revertants/Plate
Mean Number of Revertants/Plate ([3]; TA100 +S9, 3333 μg/plate): 166 Revertants/Plate
Mean Number of Revertants/Plate ([3]; TA100 +S9, 5000 μg/plate): 179 Revertants/Plate
Mean Number of Revertants/Plate ([3]; TA100 −S9, 100 μg/plate): 119 Revertants/Plate
Mean Number of Revertants/Plate ([3]; TA100 −S9, 333 μg/plate): 107 Revertants/Plate
Mean Number of Revertants/Plate ([3]; TA100 −S9, 1000 μg/plate): 115 Revertants/Plate
Mean Number of Revertants/Plate ([3]; TA100 −S9, 3333 μg/plate): 99 Revertants/Plate
Mean Number of Revertants/Plate ([3]; TA100 −S9, 5000 μg/plate): 106 Revertants/Plate
Mean Number of Revertants/Plate ([4]; TA98 +S9, 100 μg/plate): 22 Revertants/Plate
Mean Number of Revertants/Plate ([4]; TA98 +S9, 333 μg/plate): 26 Revertants/Plate
Mean Number of Revertants/Plate ([4]; TA98 +S9, 1000 μg/plate): 23 Revertants/Plate
Mean Number of Revertants/Plate ([4]; TA98 +S9, 3333 μg/plate): 16 Revertants/Plate
Mean Number of Revertants/Plate ([4]; TA98 +S9, 5000 μg/plate): 22 Revertants/Plate
Mean Number of Revertants/Plate ([4]; TA98 −S9, 100 μg/plate): 25 Revertants/Plate
Mean Number of Revertants/Plate ([4]; TA98 −S9, 333 μg/plate): 12 Revertants/Plate
Mean Number of Revertants/Plate ([4]; TA98 −S9, 1000 μg/plate): 18 Revertants/Plate
Mean Number of Revertants/Plate ([4]; TA98 −S9, 3333 μg/plate): 17 Revertants/Plate
Mean Number of Revertants/Plate ([4]; TA98 −S9, 5000 μg/plate): 15 Revertants/Plate
Mean Number of Revertants/Plate ([5]; TA1535 +S9, 100 μg/plate): 12 Revertants/Plate
Mean Number of Revertants/Plate ([5]; TA1535 +S9, 333 μg/plate): 13 Revertants/Plate
Mean Number of Revertants/Plate ([5]; TA1535 +S9, 1000 μg/plate): 10 Revertants/Plate
Mean Number of Revertants/Plate ([5]; TA1535 +S9, 3333 μg/plate): 11 Revertants/Plate
Mean Number of Revertants/Plate ([5]; TA1535 +S9, 5000 μg/plate): 14 Revertants/Plate
Mean Number of Revertants/Plate ([5]; TA1535 −S9, 100 μg/plate): 9 Revertants/Plate
Mean Number of Revertants/Plate ([5]; TA1535 −S9, 333 μg/plate): 10 Revertants/Plate
Mean Number of Revertants/Plate ([5]; TA1535 −S9, 1000 μg/plate): 10 Revertants/Plate
Mean Number of Revertants/Plate ([5]; TA1535 −S9, 3333 μg/plate): 8 Revertants/Plate
Mean Number of Revertants/Plate ([5]; TA1535 −S9, 5000 μg/plate): 7 Revertants/Plate
AUC(0-t) ([6]; CByB6F1 (wild-type), mouse, female, pretomanid 10 mg/kg/day oral, Day 14, plasma, read-out: Pretomanid AUC0-24): 24900 ng·h/mL
Cmax ([6]; CByB6F1 (wild-type), mouse, female, pretomanid 30 mg/kg/day oral, Day 14, plasma): 6900 ng/mL
AUC(0-t) ([6]; CByB6F1 (wild-type), mouse, female, pretomanid 30 mg/kg/day oral, Day 14, plasma, read-out: Pretomanid AUC0-24): 87500 ng·h/mL
Cmax ([6]; CByB6F1 (wild-type), mouse, female, pretomanid 80 mg/kg/day oral, Day 14, plasma): 16200 ng/mL
AUC(0-t) ([6]; CByB6F1 (wild-type), mouse, female, pretomanid 80 mg/kg/day oral, Day 14, plasma, read-out: Pretomanid AUC0-24): 186000 ng·h/mL
Exposure to pretomanid relative to exposure to the M50 metabolite ([6]; Day 14, all dose levels, both sexes): more than 10 times
AUC(0-t) ([6]; both sexes, CByB6F1 (wild-type), mouse, plasma, oral, high dose (40 male, 80 female mg/kg/day), read-out: Gender averaged mouse AUC0-24 of pretomanid): 149000 ng·h/mL
Cmax ([6]; wild-type CByB6F1, mouse, female, pretomanid 10 mg/kg/day oral, Day 14, plasma): 2900 ng/mL
Cmax ([6]; wild-type CByB6F1, mouse, male, pretomanid 5 mg/kg/day oral, Day 14, plasma): 1800 ng/mL
AUC(0-t) ([6]; wild-type CByB6F1, mouse, male, pretomanid 5 mg/kg/day oral, Day 14, plasma, read-out: Pretomanid AUC0-24): 13700 ng·h/mL
Cmax ([6]; wild-type CByB6F1, mouse, male, pretomanid 15 mg/kg/day oral, Day 14, plasma): 4900 ng/mL
AUC(0-t) ([6]; wild-type CByB6F1, mouse, male, pretomanid 15 mg/kg/day oral, Day 14, plasma, read-out: Pretomanid AUC0-24): 50800 ng·h/mL
Cmax ([6]; wild-type CByB6F1, mouse, male, pretomanid 40 mg/kg/day oral, Day 14, plasma): 10400 ng/mL
AUC(0-t) ([6]; wild-type CByB6F1, mouse, male, pretomanid 40 mg/kg/day oral, Day 14, plasma, read-out: Pretomanid AUC0-24): 112000 ng·h/mL
Mean Number of Revertants/Plate (Escherichia coli WP2uvrA; WP2uvrA +S9, 100 μg/plate): 16 Revertants/Plate
Mean Number of Revertants/Plate (Escherichia coli WP2uvrA; WP2uvrA +S9, 333 μg/plate): 17 Revertants/Plate
Mean Number of Revertants/Plate (Escherichia coli WP2uvrA; WP2uvrA +S9, 1000 μg/plate): 15 Revertants/Plate
Mean Number of Revertants/Plate (Escherichia coli WP2uvrA; WP2uvrA +S9, 3333 μg/plate): 10 Revertants/Plate
Mean Number of Revertants/Plate (Escherichia coli WP2uvrA; WP2uvrA +S9, 5000 μg/plate): 14 Revertants/Plate
Mean Number of Revertants/Plate (Escherichia coli WP2uvrA; WP2uvrA −S9, 100 μg/plate): 23 Revertants/Plate
Mean Number of Revertants/Plate (Escherichia coli WP2uvrA; WP2uvrA −S9, 333 μg/plate): 21 Revertants/Plate
Mean Number of Revertants/Plate (Escherichia coli WP2uvrA; WP2uvrA −S9, 1000 μg/plate): 17 Revertants/Plate
Mean Number of Revertants/Plate (Escherichia coli WP2uvrA; WP2uvrA −S9, 3333 μg/plate): 11 Revertants/Plate
Mean Number of Revertants/Plate (Escherichia coli WP2uvrA; WP2uvrA −S9, 5000 μg/plate): 16 Revertants/Plate
